Test results: US8263044B2, “Stilbene like compounds as novel HDAC inhibitors” (Orchid Research Laboratories Limited, priority 2005, dated 2012)
pIC50: −log10 of the molar value.

Columns and labels:
[1] = system: HDAC activity (Mouse Liver Extract); assay: Histone Deacetylase (HDAC) Inhibition Assay using Boc-Lys (Ac)-AMC Substrate; type: biochemical; conditions: mouse liver enzyme; for HDAC Inhibition 1 μM: inhibitor at 1 μM; for HDAC Inhibition 1 μM / HDAC Inhibition 10 μM: in % (unit assumed); for HDAC Inhibition 10 μM: inhibitor at 10 μM
Procedure: Histone Deacetylase (HDAC) Inhibition Assay using Boc-Lys (Ac)-AMC Substrate: Inhibition of HDAC has been implicated to modulate transcription and to induce apoptosis or differentiation in cancer cells. The fluorometric assay provides a fast and fluorescence based method that eliminates radioactivity, extractions or chromatography, as used in traditional assays. The assay based on two steps. First, the HDAC fluorometric substrate, which comprises an acetylated lysine side chain, is incubated with a sample containing HDAC activity (Mouse Liver Extract). Deacetylation of the substrate sensitizes the substrate, in the second step; treatment with the Trypsin stop solution produces a fluorophore that can be easily analyzed using fluorescence plate reader.
Assay was done in 96 well black microplate and total volume of the assay is 100 ul. Mouse liver enzyme is diluted 1:6 with HDAC buffer. Enzyme cocktail made of 10 ul of diluted enzyme and 30 ul of HDAC buffer. 40 ul of enzyme cocktail dispensed into each well. 10 ul of different concentrations of inhibitor added in to each well, except enzyme control well. Preincubated the plate at 30° C. for 5 minutes. The HDAC reaction is started by adding 50 ul of HDAC substrate (Boc-Lys (Ac)-AMC Substrate) solution. Incubated the plate at 30° C. for 30 minutes. Adding 100 ul of Trypsin stop solution stops the reaction. The plate is incubated again at 30° C. for 20-30 minutes. The release of AMC is monitored by measuring the fluorescence at excitation wavelength of 365 or 360 nm and emission wavelength of 440 or 460 nm. Buffer and substrate alone kept for blank subtraction. (Dennis Wegener et al, Anal. Biochem, 321, 2003, 202-208).

[2] = system: NCIH460, HCT116, MDAMB231/U251; assay: Anti-cancer screen, mean GI50 over the cell lines; type: cell-based; conditions: mean over the three cell lines; no unit in table
Procedure: (§1) Experimental drugs are screened for anti-cancer activity in three cell lines for their GI50, TGI and LC50 values (using five concentrations for each compound). The cell lines are maintained in DMEM containing 10% fetal bovine serum. 96 well micro titer plates are inoculated with cells in 100 μL for 24 h at 37° C., 5% CO2, 95% air and 100% relative humidity. 5000 HCT 116 cells/well, 5000 NCIH 460 cells/well and 5000 U251 cells/well are plated. A separate plate with these cell lines is also inoculated to determine cell viability before the addition of the compounds (T0) (See Table I).
(§2) Following 24-hour incubation, experimental drugs are added to the 96 well plates. Each plate contains one of the above cell lines and the following in triplicate: five different concentrations (0.01, 0.1, 1, 10 and 100 μM) of four different compounds, appropriate dilutions of a cytotoxic standard and control (untreated) wells. Compounds are dissolved in DMSO to make 20 mM stock solutions on the day of drug addition and frozen at −20° C. Serial dilutions of these 20 mM stock solutions are made in complete growth medium such that 100 μL of these drug solutions in medium, of final concentrations equaling 0.01, 0.1, 1, 10 and 100 μM can be added to the cells in triplicate. […] (See Table I).
(§3) For T0 measurement, 24 hours after seeding the cells, 10 μL of 3-(4,5-Dimethyl-2-thiazolyl)-2,5-diphenyl-2H-tetrazolium (MTT) solution per well is added and incubation carried out for 3 hours at 37° C., 5% CO2, 95% air and 100% relative humidity, protected from light. Cells incubated with compounds for 48 hours are treated similarly except with the addition of 20 μL MTT solution per well and a subsequent incubation under the same conditions. After 3 hours of MTT incubation, well contents are aspirated carefully followed by addition of 150 μL DMSO per well. Plates are agitated to ensure solution of the formazan crystals in DMSO and absorbance read at 570 nm. (See Table I).
Percent growth is calculated for each compound's concentration relative to the control and zero measurement wells (T0; viability right before compound addition). […]

HCT 116 cells = assay: cells; conditions: Homo sapiens, HCT-116, 48 h; for GI50: read-out: HCT116 GI50; for CC50: read-out: HCT116 LC50
Procedure: as §1, §2, §3
(§4) Percent growth is calculated for each compound's concentration relative to the control and zero measurement wells (T0; viability right before compound addition).
(§5) If a test well's O.D. value is lower than the T0 measurement for that cell line, then, % Growth=(test−zero)/zero×100

NCIH 460 cells = assay: cells; conditions: Homo sapiens, NCI-H460, 48 h; for GI50: read-out: NCIH460 GI50; for CC50: read-out: NCIH460 LC50
Procedure: as §1, §2, §3, §4, §5

MDAMB231/U251 [3] = assay: cells; conditions: 48 h, read-out: MDAMB231/U251 GI50
Procedure: as §1, §2, §3, §4, §5

MDAMB231/U251 [4] = assay: cells; conditions: 48 h, read-out: MDAMB231/U251 LC50

| Compound | melting point [°C] | HDAC Inhibition 1 μM [1] | HDAC Inhibition 10 μM [1] | GI50 [2] [µM] | GI50 (HCT 116 cells) [µM] | CC50 (HCT 116 cells) [µM] | GI50 (NCIH 460 cells) [µM] | CC50 (NCIH 460 cells) [µM] | GI50 (MDAMB231/U251 [3]) [µM] | CC50 (MDAMB231/U251 [4]) [µM] | pIC50 [1] |
| --- | --- | --- | --- | --- | --- | --- | --- | --- | --- | --- | --- |
| CSc1ccc(/C=C(\C(=O)NCCCCCC(=O)NC(Cc2ccc(O)cc2)C(=O)NO)c2ccc(F)cc2)cc1 (stereo not drawn) [Example 54] | 142.1 to 145.4 | – | – | – | – | – | – | – | – | – | – |
| O=C(CCCCCNC(=O)/C(=C\c1ccc(F)cc1Cl)c1ccccc1)NO [Example 31, (2Z)-3-(2-Chloro-4-fluorophenyl)-2-(phenyl)-N-[6-(hydroxyamino)-6-oxohexyl]acrylamide] | – | 72.20 | 91.49 | 6.9 | 5 | 97 | 9.7 | > 100 | 6 | > 100 | – |
| CSc1ccc(/C=C(\C(=O)NCCCCCC(=O)NO)c2ccc(F)cc2)cc1 [Example 16, (2Z)-3-(4-Thiomethylphenyl)-2-(4-fluorophenyl)-N-[6-(hydroxyamine)-6-oxohexyl]acrylamide] | – | 68 | 83 | 0.7 | 1.9 | 32 | 0.01 | 24 | 0.15 | 90 | 7.21 |
| COc1cc(/C=C(\C(=O)NCCCCCC(=O)Nc2ccccc2O)c2ccc(O)cc2)cc(OC)c1 [Example 5] | – | 19.6 | 35.3 | 50 | 35 | 90 | 50 | 100 | 65 | 92 | – |
| CSc1ccc(/C=C(\C(=O)NCCCCCC(=O)NO)c2ccc(C(F)(F)F)cc2)cc1 [Example 38, (2Z)-3-(4-Thiomethylphenyl)-2-(4-trifluoromethylphenyl)-N-[6-(hydroxyamino)-6-oxohexyl]acrylamide] | – | 59.26 | 97.74 | 3.9 | 5.5 | 65 | 6 | 64 | 0.07 | 60 | – |
| CSc1ccc(/C=C(\C(=O)NCCCCCC(=O)NO)c2ccc([N+](=O)[O-])cc2)cc1 [Example 41, (2Z)-3-(4-Thiomethylphenyl)-2-(4-nitrophenyl)-N-[6-(hydroxyamino)-6-oxohexyl]acrylamide] | – | 68.69 | 92.83 | 10 | 6 | 90 | 15 | 94 | 9 | 90 | – |
| Cc1ncsc1/C=C(/C(=O)NCCCCCC(=O)NO)c1cccs1 [Example 8, [(2Z)-3-(4-Methyl-1,3-thiazol-5-yl)-2-(2-thienyl))-N-[6-(hydroxyamino)-6-oxohexyl]acrylamide] | – | 77.63 | 99.67 | 9.7 | 8 | > 100 | 15 | > 100 | 6 | 96 | 6.26 |
| COc1ccc(/C(=C/c2c(F)ccc(F)c2F)C(=O)NCCCCCC(=O)NO)cc1 [Example 40, (2Z)-3-(2,3,6-Trifluorophenyl)-2-(4-methoxyphenyl)-N-[6-(hydroxyamino)-6-oxohexyl]acrylamide] | – | 79.97 | 96.16 | 3.27 | 5.8 | > 100 | 3 | > 100 | 1 | 80 | – |
| O=C(CCCCCNC(=O)/C(=C\c1ccc(Cl)o1)c1ccc(F)cc1)NO [Example 37, (2Z)-3-(5-Chloro-2-furyl)-2-(4-fluorophenyl)-N-[6-(hydroxyamino)-6-oxohexyl]acrylamide] | – | 56.87 | 83.89 | 12.3 | 6 | 90 | 26 | 90 | 5 | 80 | – |
